Read-outs that look alike come from different tables or passages of the source.
Legend:
[1] = tested on: P. falciparum D10 (CQ-sensitive) strain; assay: P. falciparum drug susceptibility assay (pLDH), D10 strain; type: cell-based; conditions: Plasmodium falciparum, read-out: P. falciparum IC50 D10
Method: Plasmodium falciparum cultures were established according to the method of Trager and Jensen, with slight modifications. […] Drugs were introduced into 96-well flat-bottomed microplates and serial dilutions made. […] Parasite growth was determined spectrophotometrically (OD650) by measuring the activity of parasite lactate dehydrogenase (pLDH), according to a modified version of the method of Makler, in both control and drug-treated cultures.

[2] = Cytotoxicity assay on HMEC-1 cell line (MTT); type: cell-based, human; conditions: human, HMEC-1 cells; HMEC-1, MTT, 72 h
Method: (§1) The long-term human microvascular endothelial cell line (HMEC-1) was maintained in MCDB 131 medium supplemented with 10% fetal calf serum, 10 ng/mL of epidermal growth factor, 1 µg/mL of hydrocortisone, 2 mM glutamine and 20 mM Hepes buffer. For the cytotoxicity assays, cells were treated with serial dilutions of test compounds and cell proliferation evaluated using the MTT assay. Plates were incubated for 72 h at 37 °C in 5% CO2, then 20 µL of a 5 mg/mL solution of 3-(4,5-dimethylthiazol-2-yl)-2,5-diphenyltetrazolium bromide (MTT) in PBS was added for an additional 3 h at 37 °C. The plates were then centrifuged, the supernatants discarded, and the dark blue formazan crystals dissolved using 100 µL of lysing buffer consisting of 20% (w/v) of a solution of SDS, 40% of N,N dimethylformamide in H2O, at pH 4.7 adjusted with 80% acetic acid. The plates were then read on a microplate reader (Synergy 4 Bio-Tek Instruments, Thermo Fisher Scientific, Waltham, MA, USA) at a test wavelength of 550 nm and a reference wavelength of 650 nm. All the tests were performed in triplicate at least three times.

[3] = tested on: human microvascular endothelial (HMEC-1) cell line; assay: Cytotoxicity assay on HMEC-1 cell line (MTT); type: cell-based; conditions: for SI D10: SI = IC50 HMEC-1/IC50 P. falciparum D10 strain; for SI W2: SI = IC50 HMEC-1/IC50 P. falciparum W2 strain
Method: as §1

[4] = tested on: P. falciparum W2 (CQ-resistant) strain; assay: P. falciparum drug susceptibility assay (pLDH), W2 strain; type: cell-based, Plasmodium falciparum; conditions: for IC50: Plasmodium falciparum, read-out: P. falciparum IC50 W2; for RI (resistance index): RI = IC50 CQ resistant P. falciparum strain/IC50 CQ sensitive P. falciparum strain
Method: Plasmodium falciparum cultures were established according to the method of Trager and Jensen, with slight modifications. The CQ-susceptible strain, D10, and the CQ-resistant strain, W2, were maintained in human type A-positive red blood cells at 5% hematocrit in RPMI 1640 medium with the addition of 1% AlbuMax, 0.01% hypoxanthine, 20 mM Hepes, and 2 mM glutamine. Cultures were maintained at 37 °C in a gas mixture consisting of 1% O2, 5% CO2, and 94% N2. Compounds were dissolved in DMSO and diluted with medium to achieve the required concentrations (final DMSO concentration <1%, which is non-toxic to the parasite). Drugs were introduced into 96-well flat-bottomed microplates and serial dilutions made. Asynchronous cultures with parasitaemia of 1–1.5% and 1% final hematocrit were aliquoted into the plates and incubated for 72 h at 37 °C. Parasite growth was determined spectrophotometrically (OD650) by measuring the activity of parasite lactate dehydrogenase (pLDH), according to a modified version of the method of Makler, in both control and drug-treated cultures.

[5] = Determination of hemolytic activity; type: cell-based; conditions: human erythrocytes, released hemoglobin, read-out: level of hemolysis
Method: We also sought to investigate the hemolytic potential of the synthetized compounds. […] We incubated these compounds at a concentration of 10 µM, with human erythrocytes, and then, by measuring the released hemoglobin, we assessed their potential harmful effects on these cells. The measured level of hemolysis was less than 5% for all agents, which proves that the compounds are not hemolytic. It is worth emphasizing at this point that this type of test is extremely important to confirm that the observed inhibitory activity against Plasmodium is a result of a compound acting directly upon it and not as a result of red blood cell lysis.
The study protocol was approved by the Bioethics Commission at the Lower Silesian Medical Chamber (1/PNHAB/2018, approval date 14 February 2018), and experiments were performed as previously described. Compounds dissolved in DMSO were added in a volume corresponding to a final concentration of 10 µM in the sample. Negative (erythrocytes in PBS buffer), positive (erythrocytes in distilled water), and DMSO controls were also prepared.

P. falciparum = conditions: read-out: 50% inhibitory concentration (IC50); range of values; no diminished potency against drug-resistant strains; ref [8]; cited from earlier work
[6] = tested on: P. falciparum RKL-9 strain; design: method as in PMID 30411030; conditions: ref [11], cited from earlier work
[7] = tested on: normal dermal fibroblasts; design: method as in PMID 30411030; conditions: ref [11]; cited from earlier work
P. falciparum 3D7 strain = tested on: P. falciparum 3D7 strain; design: method as in PMID 30411030; conditions: ref [11], cited from earlier work
[8] = tested on: human microvascular endothelial (HMEC-1) cell line; conditions: read-out: IC50 on HMEC-1 cell line, ref [21]; cited from earlier work
P. falciparum Dd2 strain = tested on: P. falciparum Dd2 strain; design: method as in PMID 29072835; conditions: ref [10], read-out: IC50 growth of P. falciparum Dd2 strain; cited from earlier work
[9] = D10 (CQ-sensitive) strain, 72 h, pLDH
[10] = W2 (CQ-resistant) strain, 72 h, pLDH

| Compound | IC50 [1, 9] [µM] | IC50 at 72 h [2] [µM] | SI D10 [3] | SI W2 [3] | IC50 [4, 10] [µM] | RI (resistance index) [4] | other results |
| --- | --- | --- | --- | --- | --- | --- | --- |
| CC(C)(C)CC(C)(C)NC(=O)C1Cc2c([nH]c3ccccc23)C(c2ccc(Cl)cc2)N1 (stereo not shown) [Compound 9, 1-(4-chlorophenyl)-N-(2,4,4-trimethylpentan-2-yl)-2,3,4,9-tetrahydro-1H-pyrido[3,4-b]indole-3-carboxamide] | 8.41 ± 1.2 | 18.9 ± 10.2 | 2.25 | 2.95 | 6.41 ± 1.05 | 0.76 | – |
| O=C(NCCCN1CCOCC1)C1Cc2c([nH]c3ccccc23)C(c2ccc(Cl)cc2)N1 (stereo not shown) [Compound 12, 1-(4-chlorophenyl)-N-(3-morpholinopropyl)-2,3,4,9-tetrahydro-1H-pyrido[3,4-b]indole-3-carboxamide] | 11.5 ± 0.34 | 102 ± 14.8 | 8.91 | 16.60 | 6.15 ± 0.46 | 0.54 | hemolysis at 10 µM [5]: < 5% |
| CCCCCCCCC1NC(C(=O)NCCC(C)(C)C)Cc2c1[nH]c1ccccc21 (stereo not shown) [Compound 7, N-(3,3-dimethylbutyl)-1-octyl-2,3,4,9-tetrahydro-1H-pyrido[3,4-b]-indole-3-carboxamide] | 4.45 ± 0.83 | 72 ± 22.4 | 16.18 | 18.00 | 4 ± 0.53 | 0.90 | hemolysis at 10 µM [5]: < 5% |
| CC(C)(C)CCNC(=O)C1Cc2c([nH]c3ccccc23)C(c2ccc(Cl)cc2)N1 (stereo not shown) [Compound 8, 1-(4-chlorophenyl)-N-(3,3-dimethylbutyl)-2,3,4,9-tetrahydro-1H-pyrido[3,4-b]indole-3-carboxamide] | 10.5 ± 1.53 | 17.9 ± 9.46 | 1.71 | 2.30 | 7.8 ± 1.54 | 0.74 | – |
| O=C(NC1CCCCC1)[C@@H]1Cc2c([nH]c3ccccc23)[C@@H](c2ccc(Cl)cc2)N1 (racemic) [1RS,3SR-13, (1RS,3SR)-1-(4-chlorophenyl)-N-cyclohexyl-2,3,4,9-tetrahydro-1H-pyrido[3,4-b]indole-3-carboxamide] | 12.5 ± 0.71 | > 123 | – | – | 9.13 ± 0.83 | 0.73 | – |
| CC1NC(C(=O)NCC2CCCCC2)Cc2c1[nH]c1ccccc21 (stereo not shown) [Compound 5, N-(cyclohexylmethyl)-1-methyl-2,3,4,9-tetrahydro-1H-pyrido[3,4-b]indole-3-carboxamide] | 33.5 ± 7.58 | – | – | – | 16.2 ± 4.11 | 0.48 | – |
| O=C(NC1CCCCC1)[C@@H]1Cc2c([nH]c3ccccc23)[C@H](c2ccc(Cl)cc2)N1 (racemic) [1RS,3RS-13, (1SR,3SR)-1-(4-chlorophenyl)-N-cyclohexyl-2,3,4,9-tetrahydro-1H-pyrido[3,4-b]indole-3-carboxamide] | 16.1 ± 3.36 | 53.8 ± 21.9 | 3.35 | 4.00 | 13.5 ± 1.99 | 0.84 | – |
| O=C(NC1CCCCCCC1)C1Cc2c([nH]c3ccccc23)CN1 (stereo not shown) [Compound 2, N-cyclooctyl-2,3,4,9-tetrahydro-1H-pyrido[3,4-b]indole-3-carboxamide] | 21.9 ± 5.82 | – | – | – | 10.1 ± 2.14 | 0.46 | – |
| C[C@H]1Cc2c([nH]c3cc(Cl)c(F)cc23)[C@@]2(N1)C(=O)Nc1ccc(Cl)cc12 [Cipargamin] | – | – | – | – | – | – | IC50 (P. falciparum): 0.0005 to 0.0014 µM |
| COC(=O)[C@@H]1Cc2c([nH]c3ccccc23)[C@@H](c2ccc3c(c2)OCO3)N1 [Compound 9a] | – | – | – | – | – | – | IC50 ([6]; RKL-9 strain): < 2.86 µM; selectivity index RKL-9 ([6]; against RKL-9 strain): > 10; toxicity to normal dermal fibroblasts [7]: nontoxic; IC50 (P. falciparum 3D7 strain; 3D7 strain): < 2.86 µM; selectivity index 3D7 (P. falciparum 3D7 strain; against 3D7 strain): > 10 |
| O=C(NCC1CCCO1)C1Cc2c([nH]c3ccccc23)C(c2ccc(Cl)cc2)N1 (stereo not shown) [Compound 10, 1-(4-chlorophenyl)-N-((tetrahydrofuran-2-yl)methyl)-2,3,4,9-tetrahydro-1H-pyrido[3,4-b]indole-3-carboxamide] | 29.4 ± 7.88 | – | – | – | 20.5 ± 2.2 | 0.70 | – |
| CCN(CC)CCCC(C)Nc1ccnc2cc(Cl)ccc12 (stereo not shown) [CQ, chloroquine, reference compound] | – | – | – | – | – | – | IC50 ([1]; D10, 72 h): 0.017 ± 0.006 µM; IC50 ([4]; W2, 72 h): 0.27 ± 0.07 µM; IC50 [8]: > 38 µM |
| O=C(NCC1COCCO1)C1Cc2c([nH]c3ccccc23)C(c2ccc(Cl)cc2)N1 (stereo not shown) [Compound 11, N-((1,4-dioxan-2-yl)methyl)-1-(4-chlorophenyl)-2,3,4,9-tetrahydro-1H-pyrido[3,4-b]indole-3-carboxamide] | 35.4 ± 4.86 | – | – | – | 29.1 ± 4.05 | 0.82 | – |
| O=C(NCC1CCCCC1)C1Cc2c([nH]c3ccccc23)C(c2ccc(Cl)cc2)N1 (stereo not shown) [Compound 14, 1-(4-chlorophenyl)-N-(cyclohexylmethyl)-2,3,4,9-tetrahydro-1H-pyrido[3,4-b]indole-3-carboxamide] | > 47.4 | – | – | – | > 47.4 | – | – |
| CC1NC(C(=O)NC2CCCCC2)Cc2c1[nH]c1ccccc21 (stereo not shown) [Compound 4, N-cyclohexyl-1-methyl-2,3,4,9-tetrahydro-1H-pyrido[3,4-b]indole-3-carboxamide] | 21.4 ± 4.7 | – | – | – | 20.1 ± 2.79 | 0.94 | – |
| O=C(O)[C@@H]1Cc2c([nH]c3ccccc23)[C@@H](c2ccc(Cl)cc2Cl)N1 [MMV008138] | – | – | – | – | – | – | IC50 (P. falciparum Dd2 strain): 0.25 µM |
| CCC1NC(C(=O)NC23CC4CC(CC(C4)C2)C3)Cc2c1[nH]c1ccccc21 (stereo not shown) [Compound 6, N-(Adamantan-1-yl)-1-ethyl-2,3,4,9-tetrahydro-1H-pyrido[3,4-b]indole-3-carboxamide] | 9.73 ± 0.96 | 21.1 ± 8.82 | 2.17 | 1.86 | 11.4 ± 0.82 | 1.17 | – |
| CC1NC(C(=O)N2CCCCC2)Cc2c1[nH]c1ccccc21 (stereo not shown) [Compound 3, (1-methyl-2,3,4,9-tetrahydro-1H-pyrido[3,4-b]indol-3-yl)(piperidin-1-yl)methanone] | 13.2 ± 2.85 | 157 ± 42.5 | 11.93 | 16.37 | 9.6 ± 0.78 | 0.73 | hemolysis at 10 µM [5]: < 5% |

From article PMC8707145, “Synthesis, Molecular Docking and Antiplasmodial Activities of New Tetrahydro-β-Carbolines” (International Journal of Molecular Sciences, 2021)
